Test results published in US20100256207A1, “AMORPHOUS OLMESARTAN MEDOXOMIL” (priority 2007, published 2010).
Entries after “also recorded” stand apart in the source; their conditions may differ.

Tests used:
[1] = Thermo-Gravimetric Analysis (TGA): water content / hygroscopicity; assay type: physicochemical
Protocol: The powder obtained by the process according to the invention as described above and in the following examples was also subjected to Thermo-Gravimetric Analysis (TGA).
The water content was determined by weight loss in the TGA data at 25-105° C.
The TGA analysis data was obtained using a Mettler-Toledo TGA851e apparatus under the following parameters:
(§1) Temperature profile: 25-300° C.@5° C./min
(§2) Nitrogen purge gas, 50 ml/min
(§3) Aluminium pan, […], pierced prior to scan

[2] = assay type: physicochemical
Protocol: The powder obtained by the process according to the invention as described above and in the following examples was also subjected to Differential Scanning Calorimetry (DSC). It will be apparent to one skilled in the art that the exothermic event at 100-140° C. is a heating-induced recrystallisation of the amorphous form to the crystalline prior art form. This is confirmed by XRPD data and confirms that the chemical entity of the initial amorphous material does represent olmesartan medoxomil. Further, it also confirms that the amorphous olmesartan medoxomil according to the above described embodiments of the invention is sufficiently kinetically stable or metastable, as no conversion to other polymorphic forms occurs below 100° C.
The DSC thermal analysis data was obtained using a Mettler-Toledo DSC821e apparatus under the following parameters:
as §1, §2, §3

[3] = cited from earlier work

water content ([1]; weight loss in the TGA data at 25-105° C.) | kinetic stability: temperature below which no conversion to other polymorphic forms occurs [2] [°C] | exothermic event: heating-induced recrystallisation of the amorphous form to the crystalline prior art form ([2]; DSC, 25-300° C. at 5° C./min, nitrogen purge, confirmed by XRPD) | SMILES | hygroscopicity [1] | aqueous solubility [3]
less than 2 % by weight | ≥ 100 | 100-140 °C | CCCc1nc(C(C)(C)O)c(C(=O)OCc2oc(=O)oc2C)n1Cc1ccc(-c2ccccc2-c2nnn[nH]2)cc1 [amorphous olmesartan medoxomil, 2,3-dihydroxy-2-butenyl 4-(1-hydroxy-1-methylethyl)-2-propyl-1-[p-(o-tetrazol-5-yl-phenyl)benzyl]imidazole-5-carboxylate cyclic 2,3-carbonate] | surprisingly low hygroscopicity; also recorded: substantially non-hygroscopic | –
– | – | – | CCCc1nc(C(C)(C)O)c(C(=O)OCc2oc(=O)oc2C)n1Cc1ccc(-c2ccccc2-c2nnn[nH]2)cc1 [Olmesartan medoxomil, 2,3-dihydroxy-2-butenyl 4-(1-hydroxy-1-methylethyl)-2-propyl-1-[p-(o-tetrazol-5-yl-phenyl)benzyl]imidazole-5-carboxylate cyclic 2,3-carbonate] | – | very low
